Test results as given in ChEMBL document CHEMBL1139559, “Radical scavenging activity of protein from tentacles of jellyfish Rhopilema esculentum” (Bioorg Med Chem Lett, 2005).
Converted amounts (≈) assume the structure as drawn.

How the values were obtained:
[1] = Effective concentration required for scavenging of superoxide anion radical generation from the tentical protein of jellyfish; assay type: functional, Rhopilema esculentum
[2] = Effective concentration required for scavenging of hydroxyl radical generation from the tentical protein of jellyfish; assay type: functional, Rhopilema esculentum

| SMILES | EC50 [1] [µg/mL] | EC50 [2] [µg/mL] |
| --- | --- | --- |
| Cc1c(C)c2c(c(C)c1O)CC[C@@](C)(CCC[C@H](C)CCC[C@H](C)CCCC(C)C)O2 [ALPHA-TOCOPHEROL] | 88 (≈ 204 µM) | – |
| COc1ccc(O)c(C(C)(C)C)c1.COc1ccc(O)cc1C(C)(C)C [BUTYLATED HYDROXYANISOLE] | 31 | – |
| Cc1cc(C(C)(C)C)c(O)c(C(C)(C)C)c1 [BUTYLATED HYDROXYTOLUENE] | 61 (≈ 277 µM) | – |
| OC[C@@H](O)[C@@H](O)[C@H](O)[C@H](O)CO [MANNITOL] | – | 4536 (≈ 24900 µM) |
